Test results as given in patent US9090593B2, “Bicyclic compounds as Pim inhibitors” (AMGEN INC., priority 2010, dated 2015).
Read-outs that look alike come from different tables or passages of the source.

What was measured:
[1] = target: T1, Pim-1 stably transfected into the U2OS human osteogenic sarcoma line (Homo sapiens, UniProt P11309); test: Pim cell assay, phospho-BAD normalized against total BAD, U2OS stably transfected with Pim-1; assay type: cell-based; conditions: read-out: Pim1_Cell_IC50
T1 construct: expressed in transfected cells; host or cells: U2OS human osteogenic sarcoma line
T1 sequence (P11309 whole entry): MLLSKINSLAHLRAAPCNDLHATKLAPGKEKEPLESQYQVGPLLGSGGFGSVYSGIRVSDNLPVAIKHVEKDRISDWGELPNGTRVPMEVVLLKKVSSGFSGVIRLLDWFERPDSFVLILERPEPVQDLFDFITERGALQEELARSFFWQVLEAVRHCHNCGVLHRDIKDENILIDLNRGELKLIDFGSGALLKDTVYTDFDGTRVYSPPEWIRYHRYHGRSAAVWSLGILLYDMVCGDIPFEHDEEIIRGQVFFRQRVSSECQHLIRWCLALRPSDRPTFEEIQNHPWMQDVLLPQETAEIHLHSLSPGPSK
Procedure, shortened: (§1)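 Read-out is phospho-BAD relative to total BAD, by MSD electrochemiluminescence on lysates, expressed as % phosphoprotein = (2×phospho)/(phospho+total)×100. Engineered U2OS lines carrying stably transfected Pim-1 or Pim-2 received 10-point compound dilutions at 0.3% final DMSO after overnight culture at 37 °C; DMSO-only wells served as high control.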

[2] = target: T2, Pim-2 stably transfected into the U2OS human osteogenic sarcoma line (Homo sapiens, UniProt Q9P1W9); test: Pim cell assay, phospho-BAD normalized against total BAD, U2OS stably transfected with Pim-2; assay type: cell-based; conditions: read-out: Pim2_Cell_IC50; further: high dose 31.6 µM
T2 construct: expressed in transfected cells; host or cells: U2OS human osteogenic sarcoma line
T2 sequence (Q9P1W9 whole entry): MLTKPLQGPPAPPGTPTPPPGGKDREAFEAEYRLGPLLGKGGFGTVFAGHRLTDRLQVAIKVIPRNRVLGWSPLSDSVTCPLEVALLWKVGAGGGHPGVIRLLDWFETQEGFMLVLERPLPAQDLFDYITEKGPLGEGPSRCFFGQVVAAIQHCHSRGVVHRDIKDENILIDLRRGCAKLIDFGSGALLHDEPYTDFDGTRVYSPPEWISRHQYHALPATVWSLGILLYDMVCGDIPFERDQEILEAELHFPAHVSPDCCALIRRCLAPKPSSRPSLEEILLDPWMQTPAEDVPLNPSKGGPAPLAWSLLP
Procedure, shortened: as §1

[3] = target: T3, full length recombinant Pim-3 protein (Homo sapiens, UniProt Q86V86); test: Pim-3 enzyme assay (HTRF, phosphorylation of biotinylated-BAD (S112) peptide); assay type: biochemical; conditions: read-out: Pim3 IC50
T3 construct: by full length recombinant Pim-1, Pim-2, or Pim-3 protein; purchased Millipore (UK)
Procedure, shortened: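 HTRF read-out, streptavidin-APC plus Eu-labelled anti-phospho-BAD (S112) antibody, measures BAD peptide phosphorylation by full-length recombinant Pim-3. Buffer: 60 mM Hepes pH 7.0, 2 mM DTT, 0.05% BSA; EDTA (3 mM) stop. Percent of control per well, IC50 by 4-parameter logistic fit.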

[4] = target: T4, full length recombinant Pim-2 protein (Homo sapiens, UniProt Q9P1W9); test: Pim-2 enzyme assay (HTRF, phosphorylation of biotinylated-BAD (S112) peptide); assay type: biochemical; conditions: enzyme assay, Pim-2; read-out: Pim2_IC50
T4 construct: by full length recombinant Pim-1, Pim-2, or Pim-3 protein; hexahistidine tag followed by a thrombin cleavage site (N); made in house; host or cells: Sf9 (baculovirus) or E. coli (pET28)
T4 sequence (Q9P1W9 whole entry): as the sequence (Q9P1W9 whole entry) above
Procedure, shortened: (§2)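 Each full-length human Pim enzyme phosphorylates a biotinylated BAD (S112) peptide, and the product is sensed by Eu anti-phospho-BAD antibody with streptavidin-APC after quenching with 3 mM EDTA. Conditions: 60 mM Hepes pH 7.0, 0.05% BSA, 2 mM DTT.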

[5] = target: T5, full length recombinant Pim-1 protein (Homo sapiens, UniProt P11309); test: Pim-1 enzyme assay (HTRF, phosphorylation of biotinylated-BAD (S112) peptide); assay type: biochemical; conditions: enzyme assay, Pim-1; read-out: Pim_1_IC50
T5 construct: by full length recombinant Pim-1, Pim-2, or Pim-3 protein; hexahistidine tag followed by a thrombin cleavage site (N); made in house; host or cells: Sf9 (baculovirus) or E. coli (pET28)
T5 sequence (P11309 whole entry): as the sequence (P11309 whole entry) above
Procedure, shortened: as §2

[6] = U2OS cells stably transfected with Pim-1, phospho-BAD, high dose […]
[7] = U2OS cells stably transfected with Pim-2, phospho-BAD, high dose […]

| SMILES | IC50 [1, 6] [nM] | IC50 [2, 7] [nM] | IC50 [3] [nM] | IC50 [4] [nM] | IC50 [5] [nM] | IC50 [1] [nM] | IC50 [2] [nM] |
| --- | --- | --- | --- | --- | --- | --- | --- |
| CC(C)Oc1cc(-c2ccc3[nH]nc(-c4cncc(O[C@@H]5CCCNC5)n4)c3c2)ccn1 [Example 143, 5-(2-(1-methylethoxy)-4-pyridinyl)-3-(6-((3R)-3-piperidinyloxy)-2-pyrazinyl)-1H-indazole] | 873 | > 31600 | 25 | 34 | 5 | – | – |
| c1cc2[nH]nc(-c3cncc(O[C@@H]4CCCNC4)n3)c2cc1-c1cncc(NC2CC2)n1 [Example 158, N-cyclopropyl-6-(3-(6-((3R)-3-piperidinyloxy)-2-pyrazinyl)-1H-indazol-5-yl)-2-pyrazinamine] | 36 | > 15800 | 1 | 121 | 1 | – | – |
| O[C@H]1CCCN(c2cncc(-c3n[nH]c4ccc(-c5c(F)cccc5F)cc34)n2)C1 [Example 163, (3S)-1-(6-(5-(2,6-difluorophenyl)-1H-indazol-3-yl)-2-pyrazinyl)-3-piperidinol] | 1630 | > 31600 | 49 | 969 | 58 | – | – |
| CN(c1cncc(-c2n[nH]c3ccc(-c4c(F)cccc4F)cc23)n1)C1CCCNC1 (stereo not drawn) [Example 178, 6-(5-(2,6-difluorophenyl)-1H-indazol-3-yl)-N-methyl-N-3-piperidinyl-2-pyrazinamine] | 582 | 14300 | 6 | 61 | 6 | – | – |
| CCNc1cncc(-c2n[nH]c3ccc(-c4c(F)cccc4F)cc23)n1 [Example 180, 6-(5-(2,6-difluorophenyl)-1H-indazol-3-yl)-N-ethyl-2-pyrazinamine] | 2130 | > 31600 | 81 | 643 | 76 | – | – |
| CC(C)Nc1cncc(-c2n[nH]c3ccc(-c4c(F)cccc4F)cc23)n1 [Example 182, 6-(5-(2,6-difluorophenyl)-1H-indazol-3-yl)-N-(1-methylethyl)-2-pyrazinamine] | 2460 | > 31600 | 49 | 556 | 40 | – | – |
| CC(C)(C)Nc1cncc(-c2n[nH]c3ccc(-c4c(F)cccc4F)cc23)n1 [Example 183, N-tert-butyl-6-(5-(2,6-difluorophenyl)-1H-indazol-3-yl)-2-pyrazinamine] | 4260 | > 31600 | 44 | 679 | 44 | – | – |
| Fc1cccc(F)c1-c1ccc2[nH]nc(-c3cncc(OC4CCNC4)n3)c2c1 (stereo not drawn) [Example 187, 5-(2,6-difluorophenyl)-3-(6-(3-pyrrolidinyloxy)-2-pyrazinyl)-1H-indazole] | 1830 | 24200 | 22 | 131 | 50 | – | – |
| Fc1cccc(F)c1-c1ccc2[nH]nc(-c3ccnc(O[C@@H]4CCCNC4)n3)c2c1 [Example 190, 5-(2,6-difluorophenyl)-3-(2-((3R)-3-piperidinyloxy)-4-pyrimidinyl)-1H-indazole] | 1220 | 18800 | 36 | 223 | 24 | – | – |
| C[C@H]1CCNC[C@@H]1Oc1cncc(-c2n[nH]c3ccc(-c4c(F)cccc4F)cc23)n1 [Example 195, 5-(2,6-difluorophenyl)-3-(6-(((3R,4S)-4-methyl-3-piperidinyl)oxy)-2-pyrazinyl)-1H-indazole] | 211 | 7580 | 7 | 15 | 4 | – | – |
| C[C@H]1CCNC[C@H]1Oc1cncc(-c2n[nH]c3ccc(-c4c(F)cccc4F)cc23)n1 [Example 199, 5-(2,6-difluorophenyl)-3-(6-(((3S,4S)-4-methyl-3-piperidinyl)oxy)-2-pyrazinyl)-1H-indazole] | 400 | 3410 | 4 | 16 | 5 | – | – |
| N[C@H]1CCCN(c2cncc(-c3c[nH]c4ccc(-c5c(F)cccc5F)cc34)n2)C1 [Example 201, (3S)-1-(6-(5-(2,6-difluorophenyl)-1H-indol-3-yl)-2-pyrazinyl)-3-piperidinamine] | 611 | > 31600 | 5 | 66 | 1 | – | – |
| Fc1cccc(F)c1-c1ccc2[nH]cc(-c3cncc(NC4CCNCC4)n3)c2c1 [Example 205, 6-(5-(2,6-difluorophenyl)-1H-indol-3-yl)-N-4-piperidinyl-2-pyrazinamine] | 273 | 4330 | 4 | 29 | 4 | – | – |
| Fc1cccc(F)c1-c1ccc2[nH]cc(-c3cncc(N[C@@H]4CCNC4)n3)c2c1 [Example 208, 6-(5-(2,6-difluorophenyl)-1H-indol-3-yl)-N-((3R)-3-pyrrolidinyl)-2-pyrazinamine] | 381 | 4620 | 4 | 15 | 2 | – | – |
| Fc1cccc(F)c1-c1ccc2[nH]cc(-c3nccc(O[C@@H]4CCCNC4)n3)c2c1 [Example 209, 5-(2,6-difluorophenyl)-3-(4-((3R)-3-piperidinyloxy)-2-pyrimidinyl)-1H-indole] | – | – | 49 | 89 | 36 | 1180 | 30300 |

The remaining compounds from weak to strong by IC50 [3], led by results:

| IC50 [1, 6] [nM] | IC50 [2, 7] [nM] | IC50 [3] [nM] | IC50 [4] [nM] | IC50 [5] [nM] | IC50 [1] [nM] | IC50 [2] [nM] | SMILES |
| --- | --- | --- | --- | --- | --- | --- | --- |
| > 31600 | > 31600 | 233 | 1040 | 139 | – | – | Fc1cccc(F)c1-c1ccc2[nH]nc(-c3cncc(Nc4ccccc4)n3)c2c1 [Example 184, 6-(5-(2,6-difluorophenyl)-1H-indazol-3-yl)-N-phenyl-2-pyrazinamine] |
| – | – | 61 | 445 | 86 | 3790 | > 31600 | Fc1cccc(F)c1-c1ccc2[nH]cc(-c3nccc(OC4CCNCC4)n3)c2c1 [Example 211, 5-(2,6-difluorophenyl)-3-(4-(4-piperidinyloxy)-2-pyrimidinyl)-1H-indole] |
| – | – | 40 | 343 | 22 | 1370 | 18900 | CC(C)Oc1cncc(-c2ccc3[nH]cc(-c4cncc(O[C@@H]5CCCNC5)n4)c3c2)n1 [Example 213, 5-(6-(1-methylethoxy)-2-pyrazinyl)-3-(6-((3R)-3-piperidinyloxy)-2-pyrazinyl)-1H-indole] |
| 997 | > 31600 | 18 | 185 | 15 | – | – | N[C@@H]1CCN(c2cncc(-c3c[nH]c4ccc(-c5c(F)cccc5F)cc34)n2)C1 [Example 212, (3R)-1-(6-(5-(2,6-difluorophenyl)-1H-indol-3-yl)-2-pyrazinyl)-3-pyrrolidinamine] |
| 625 | > 31600 | 6 | 87 | 19 | – | – | FC(F)(F)c1cccc(-c2ccc3[nH]nc(-c4cncc(O[C@@H]5CCCNC5)n4)c3c2)n1 [Example 142, 3-(6-((3R)-3-piperidinyloxy)-2-pyrazinyl)-5-(6-(trifluoromethyl)-2-pyridinyl)-1H-indazole] |
| 326 | 20400 | 6 | 54 | 2 | – | – | Fc1cccc(F)c1-c1ccc2[nH]cc(-c3cncc(OC4CCNCC4)n3)c2c1 [Example 206, 5-(2,6-difluorophenyl)-3-(6-(4-piperidinyloxy)-2-pyrazinyl)-1H-indole] |
| 146 | 5090 | 5 | 13 | 4 | – | – | C[C@H]1CCNC[C@@H]1Oc1cncc(-c2n[nH]c3ccc(-c4c(F)cccc4F)cc23)n1 [Example 198, 5-(2,6-difluorophenyl)-3-(6-(((3R,4S)-4-methyl-3-piperidinyl)oxy)-2-pyrazinyl)-1H-indazole] |
| 102 | 3030 | 4 | 11 | 1 | – | – | Fc1cccc(F)c1-c1ccc2[nH]cc(-c3cncc(N[C@@H]4CCCNC4)n3)c2c1 [Example 207, 6-(5-(2,6-difluorophenyl)-1H-indol-3-yl)-N-((3R)-3-piperidinyl)-2-pyrazinamine] |
| 561 | > 31600 | 3 | 52 | 2 | – | – | NC1CCN(c2nccc(-c3n[nH]c4ccc(-c5c(F)cccc5F)cc34)n2)CC1 [Example 194, 1-(4-(5-(2,6-difluorophenyl)-1H-indazol-3-yl)-2-pyrimidinyl)-4-piperidinamine] |
